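A five-concentration, 48-hour dose response in 96-well plates underlies each endpoint, interpolated linearly between surrounding concentrations. The concentration for 50% growth inhibition is given as GI50. At the TGI there is no net growth.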
Legend:
Assay in all cases: NCI-60 cell line screen, 48 h
[1] = system: SNB-75 CNS
[2] = system: UO-31 renal
[3] = system: EKVX NSCLC
[4] = system: NCI-H226 lung
[5] = system: CCRF-CEM leukemia
[6] = system: SF-539 CNS
[7] = system: M14 melanoma
[8] = system: SR leukemia
[9] = system: T-47D breast
[10] = system: BT-549 breast

Structure (SMILES)	TGI [1] [µM]	TGI [2] [µM]	TGI [3] [µM]	TGI [4] [µM]	TGI [5] [µM]	TGI [6] [µM]	TGI [7] [µM]	TGI [8] [µM]	GI50 [8] [µM]	GI50 [1] [µM]	GI50 [2] [µM]	GI50 [3] [µM]	GI50 [4] [µM]	GI50 [6] [µM]	GI50 [9] [µM]	TGI [9] [µM]	GI50 [10] [µM]	TGI [10] [µM]	GI50 [7] [µM]
COC(CN1C=C(Sc2ccccc2)CC1)OC	52.7	> 100	> 100	> 100	62.8	68.3	> 100	–	–	–	–	–	–	–	–	–	–	–	–
C/C=C(\C)c1cc(O)c(C)c2c1Oc1cc(O)c(Cl)c(C)c1C(=O)O2	53.3	27.2	61.2	33.6	–	48.2	43.4	49.5	–	–	–	–	–	–	–	–	–	–	–
c1ccc(P(=Nc2ccccc2N=P(c2ccccc2)(c2ccccc2)c2ccccc2)(c2ccccc2)c2ccccc2)cc1	2.09	6.35	15	1.38	13	10.4	15.7	–	–	–	–	–	–	–	–	–	–	–	–
COc1ccc(C(Cl)=C(c2ccc(OCCN(C)C)cc2)c2ccc(OCCN(C)C)cc2)cc1	3.29	3.31	18.1	3.42	3.83	2.93	2.92	3.16	–	–	–	–	–	–	–	–	–	–	–
CN(C)c1ccc(/C=C2\C=Cc3ccccc32)cc1	57	> 100	–	–	> 100	> 100	> 100	> 100	–	–	–	–	–	–	–	–	–	–	–
Cc1ccc(S(=O)OC2C3CC4CC(C3)CC2C4)cc1 (centres undefined)	> 100	> 100	> 100	> 100	–	> 100	> 100	> 100	–	–	–	–	–	–	–	–	–	–	–
Cc1cc2c(c(C(=O)O)c1C)-c1cccc(F)c1C2=O	> 100	66.1	> 100	> 100	> 100	–	> 100	–	–	–	–	–	–	–	–	–	–	–	–
Cn1c2ccccc2n2c(=O)c3c(c(C#N)c12)CCCC3	> 100	> 100	> 100	> 100	–	> 100	> 100	> 100	–	–	–	–	–	–	–	–	–	–	–
C[C@@H]1O[C@@H](OC[C@H]2O[C@@H](OCCc3ccc(O)c(O)c3)[C@H](O)[C@@H](O)[C@@H]2OC(=O)/C=C/c2ccc(O)c(O)c2)[C@H](O)[C@H](O)[C@H]1O	> 100	> 100	> 100	> 100	–	> 100	> 100	> 100	93.8	> 100	> 100	> 100	> 100	> 100	> 100	> 100	24.5	54.3	> 100
COc1ccc2c(c1OC)C(=O)OC2C1c2c(c([N+](=O)[O-])c3c(c2OC)OCO3)CCN1C (centres undefined)	> 100	> 100	> 100	> 100	–	> 100	> 100	–	–	> 100	> 100	> 100	> 100	> 100	54.1	> 100	> 100	> 100	> 100
